# System: Wnt pathway (TCF-dependent transcription in HEK293 luciferase reporter cell line with ER-DSH construct)
# Assay: Cellular assay for Wnt pathway activity (luciferase reporter)
# Format: cell-based
# Conditions: Homo sapiens; Wnt pathway inhibition, HEK293 luciferase reporter cells (ER-DSH, TCF promoter), 24 hours incubation, estrogen-induced
# In short: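 Luminescent luciferase read-out after 24 h compound exposure at 1 nM to 30 μM, with TCF-driven transcription switched on by estrogen addition. IC50 values come from curve fits of data normalized against the vehicle-only control.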
row,Compound,IC50 [µM]
1,"CC(=O)N(C)CCN(C)c1cncc(Oc2ccc(-c3ccc(C(F)(F)F)cn3)cc2)n1 [Compound 162, N-Methyl-N-[2-(methyl-{6-[4-(5-trifluoro-methyl-pyridin-2-yl)-phenoxy]-pyrazin-2-yl}-amino)-ethyl]-acetamide]",0.2 to 1
2,"CC(=O)N(C)CCN(C)c1cncc(Oc2ccc(Cn3nc(-c4cc(F)cc(F)c4)ccc3=O)cc2)n1 [Compound 127, N-{2-[(6-{4-[3-(3,5-Difluoro-phenyl)-6-oxo-6H-pyridazin-1-ylmethyl]-phenoxy}-pyrazin-2-yl)-methyl-amino]-ethyl}-N-methyl-acetamide]",1 to 10
3,"CC(=O)N(C)CCN(C)c1cncc(Oc2ccc(-c3ccnc(O)c3)cc2)n1 [Compound 204, N-[2-({6-[4-(2-Hydroxy-pyridin-4-yl)-phenoxy]-pyrazin-2-yl}-methyl-amino)-ethyl]-N-methyl-acetamide]",0.2 to 1
4,"CC(=O)N(C)CCNc1cncc(Oc2ccc(-c3ccc(C)cn3)cc2)n1 [Compound 19, N-Methyl-N-(2-{6-[4-(5-methyl-pyridin-2-yl)-phenoxy]-pyrazin-2-ylamino}-ethyl)-acetamide]",< 0.2
5,"CCN(CCNc1cncc(Oc2ccc(OC)cc2)n1)C(C)=O [Compound 71, N-Ethyl-N-{2-[6-(4-methoxy-phenoxy)-pyrazin-2-ylamino]-ethyl}-acetamide]",0.2 to 1
6,"CC(=O)N(C)CCN(C)c1cncc(Oc2ccc(CC(N)=O)cc2)n1 [Compound 117, 2-[4-(6-{[2-(Acetyl-methyl-amino)-ethyl]-methyl-amino}-pyrazin-2-yloxy)-phenyl]-acetamide]",0.2 to 1
7,"CC(N)C(=O)N(C)CCN(C)c1cncc(Oc2ccc(F)cc2)n1 (stereo not shown) [Compound 308, 2-Amino-N-(2-{[6-(4-fluoro-phenoxy)-pyrazin-2-yl]-methyl-amino}-ethyl)-N-methyl-propionamide]",1 to 10
8,"CCc1ccc(C2=NN(C(=O)c3ccc(Oc4cncc(N(C)CCN(C)C(C)=O)n4)cc3)CCC2)cc1 [Compound 148, N-{2-[(6-{4-[3-(4-Ethyl-phenyl)-5,6-dihydro-4H-pyridazine-1-carbonyl]-phenoxy}-pyrazin-2-yl)-methyl-amino]-ethyl}-N-methyl-acetamide]",1 to 10
9,"CC(=O)N(C)CCN(C)c1cncc(Oc2c(F)cc(Br)cc2F)n1 [Compound 113, N-(2-{[6-(4-Bromo-2,6-difluoro-phenoxy)-pyrazin-2-yl]-methyl-amino}-ethyl)-N-methyl-acetamide]",< 0.2
10,"CC(=O)N(C)CCCc1cc(Oc2ccc(-c3cccc(N4CCN(C)CC4)n3)cc2)c[n+]([O-])c1 [Compound 314, N-Methyl-N-[3-(5-{4-[6-(4-methyl-piperazin-1-yl)-pyridin-2-yl]-phenoxy}-1-oxy-pyridin-3-yl)-propyl]-acetamide]",1 to 10
11,"CN(CCN(C)c1cncc(Oc2ccc(F)cc2)n1)C(=O)CN(C)C(=O)OC(C)(C)C [Compound 285, {[(2-{[6-(4-Fluoro-phenoxy)-pyrazin-2-yl]-methyl-amino}-ethyl)-methyl-carbamoyl]-methyl}-methyl-carbamic acid tert-butyl ester]",1 to 10
12,"COc1ccc(Oc2cncc(NCCN(C)C(C)=O)n2)cc1 [Compound 67, N-{2-[6-(4-Methoxy-phenoxy)-pyrazin-2-ylamino]-ethyl}-N-methyl-acetamide]",1 to 10
13,"CC(=O)N(C)CCN(C)c1cncc(Oc2ccc(Cl)c(C(F)(F)F)c2)n1 [Compound 88, N-(2-{[6-(4-Chloro-3-trifluoro-methyl-phenoxy)-pyrazin-2-yl]-methyl-amino}-ethyl)-N-methyl-acetamide]",1 to 10
14,"CC(=O)N(C)CCN(C)c1cncc(Oc2ccc3c(c2)C(=O)CC3)n1 [Compound 108, N-Methyl-N-(2-{methyl-[6-(3-oxo-indan-5-yloxy)-pyrazin-2-yl]-amino}-ethyl)-acetamide]",1 to 10
15,"CC(=O)N(C)CCN(C)c1cncc(Oc2ccc(-c3cc(N)ccn3)cc2)n1 [Compound 172, N-[2-({6-[4-(4-Amino-pyridin-2-yl)-phenoxy]-pyrazin-2-yl}-methyl-amino)-ethyl]-N-methyl-acetamide]",0.2 to 1
16,"CC(=O)N(C)CCN(C)c1cncc(Oc2ccc(-c3cncc(C)c3)cc2)n1 [Compound 212, N-Methyl-N-[2-(methyl-{6-[4-(5-methyl-pyridin-3-yl)-phenoxy]-pyrazin-2-yl}-amino)-ethyl]-acetamide]",0.2 to 1
17,"CC(=O)N(C)CCN(C)c1cncc(Oc2ccc(-c3ccc(F)cn3)cc2F)n1 [Compound 226, N-[2-({6-[2-Fluoro-4-(5-fluoro-pyridin-2-yl)-phenoxy]-pyrazin-2-yl}-methyl-amino)-ethyl]-N-methyl-acetamide]",< 0.2
18,"CN(CCC1(O)CCCC1)c1cncc(Oc2ccc(F)cc2)n1 [Compound 283, 1-(2-{[6-(4-Fluoro-phenoxy)-pyrazin-2-yl]-methyl-amino}-ethyl)-cyclopentanol]",0.2 to 1
19,"CCOC(=O)c1cccc(Oc2cncc(N(C)CCN(C)C(C)=O)n2)c1 [Compound 45, 3-(6-{[2-(Acetyl-methyl-amino)-ethyl]-methyl-amino}-pyrazin-2-yloxy)-benzoic acid ethyl ester]",1 to 10

row,Compound,IC50 [µM]
1,"CC(=O)N(C)CCN(C)c1cncc(Oc2ccc(C(C)C)cc2)n1 [Compound 95, N-(2-{[6-(4-Isopropyl-phenoxy)-pyrazin-2-yl]-methyl-amino}-ethyl)-N-methyl-acetamide]",< 0.2
2,"CC(=O)N(C)CCN(C)c1cncc(Oc2ccc(-c3ccccn3)cc2)n1 [Compound 133, N-Methyl-N-(2-{methyl-[6-(4-pyridin-2-yl-phenoxy)-pyrazin-2-yl]-amino}-ethyl)-acetamide]",< 0.2
3,"CC(=O)N(C)CCN(C)c1cncc(Oc2ccc(-c3ccc(CO)nc3)cc2)n1 [Compound 8, N-[2-({6-[4-(6-Hydroxymethyl-pyridin-3-yl)-phenoxy]-pyrazin-2-yl}-methyl-amino)-ethyl]-N-methyl-acetamide]",< 0.2
4,"COc1ccc(-c2ccc(Oc3cncc(N(C)CCN(C)C(C)=O)n3)cc2)nc1 [Compound 163, N-[2-({6-[4-(5-Methoxy-pyridin-2-yl)-phenoxy]-pyrazin-2-yl}-methyl-amino)-ethyl]-N-methyl-acetamide]",< 0.2
5,"CC(=O)N(C)CCCc1cncc(Oc2ccc(-c3cccc(N4CCN(C)CC4)n3)cc2)c1 [Compound 316, N-Methyl-N-[3-(5-{4-[6-(4-methyl-piperazin-1-yl)-pyridin-2-yl]-phenoxy}-pyridin-3-yl)-propyl]-acetamide]",1 to 10
6,"CC(=O)Nc1ccc(-c2ccc(Oc3cncc(NCCN(C)C(C)=O)n3)cc2)cn1 [Compound 260, N-(2-{6-[4-(6-Acetylamino-pyridin-3-yl)-phenoxy]-pyrazin-2-ylamino}-ethyl)-N-methyl-acetamide]",0.2 to 1
7,"CC(=O)N(C)CCNc1cncc(Oc2ccc(F)cc2)c1 [Compound 315, N-{2-[5-(4-Fluoro-phenoxy)-pyridin-3-ylamino]-ethyl}-N-methyl-acetamide]",≥ 10
8,"CC(=O)N(C)CCCc1cncc(Oc2ccc(-c3cnc(N)cn3)cc2F)n1 [Compound 269, N-(3-{6-[4-(5-Amino-pyrazin-2-yl)-2-fluoro-phenoxy]-pyrazin-2-yl}-propyl)-N-methyl-acetamide]",0.2 to 1
9,"CCN(CCN(C)c1cncc(Oc2ccc(OC)cc2)n1)C(C)=O [Compound 77, N-Ethyl-N-(2-{[6-(4-methoxy-phenoxy)-pyrazin-2-yl]-methyl-amino}-ethyl)-acetamide]",< 0.2
10,"CC(=O)N(C)CCCc1cnc(N)c(Oc2ccc(F)cc2)c1 [Compound 306, N-{3-[6-Amino-5-(4-fluoro-phenoxy)-pyridin-3-yl]-propyl}-N-methyl-acetamide]",1 to 10
11,"CC(=O)N(C)CCN(C)c1cncc(Oc2ccc(C(F)(F)F)cc2)n1 [Compound 121, N-Methyl-N-(2-{methyl-[6-(4-trifluoro-methyl-phenoxy)-pyrazin-2-yl]-amino}-ethyl)-acetamide]",0.2 to 1
12,"CC(=O)N(CCSc1cncc(Oc2ccc(-c3ccc(C)cn3)cc2)n1)C(C)C [Compound 169, N-Isopropyl-N-(2-{6-[4-(5-methyl-pyridin-2-yl)-phenoxy]-pyrazin-2-ylsulfanyl}-ethyl)-acetamide]",< 0.2
13,"CC(=O)N(C)CCCc1cncc(Oc2ccc(-c3ccc([N+](=O)[O-])cn3)cc2F)n1 [Compound 274, N-(3-{6-[2-Fluoro-4-(5-nitro-pyridin-2-yl)-phenoxy]-pyrazin-2-yl}-propyl)-N-methyl-acetamide]",1 to 10
14,"CC(=O)N(C)CCN(C)c1cncc(Oc2ccc(-c3nccs3)cc2)n1 [Compound 158, N-Methyl-N-(2-{methyl-[6-(4-thiazol-2-yl-phenoxy)-pyrazin-2-yl]-amino}-ethyl)-acetamide]",< 0.2
15,"CC(=O)N(C)CCNc1cncc(Oc2ccc(-c3ccnc(C#N)c3)cc2)n1 [Compound 288, N-(2-{6-[4-(2-Cyano-pyridin-4-yl)-phenoxy]-pyrazin-2-ylamino}-ethyl)-N-methyl-acetamide]",1 to 10
16,"CC(=O)NCC(C)Nc1cncc(Oc2ccc(F)cc2)n1 (stereo not shown) [Compound 289, N-{2-[6-(4-Fluoro-phenoxy)-pyrazin-2-ylamino]-propyl}-acetamide]",1 to 10
17,"CC(=O)N(C)CCN(C)c1cncc(Oc2ccc(-c3ccc(N4CCN(C(=O)CCCCCNC(=O)CCCCC5SCC6NC(=O)NC65)CC4)nc3)cc2)n1 (stereo not shown) [Compound 287, 5-(2-Oxo-hexahydro-thieno[3,4-d]imidazol-6-yl)-pentanoic acid [6-(4-{5-[4-(6-{[2-(acetyl-methyl-amino)-ethyl]-methyl-amino}-pyrazin-2-yloxy)-phenyl]-pyridin-2-yl}-piperazin-1-yl)-6-oxo-hexyl]-amide]",< 0.2
18,"CC(=O)N(C)CCN(C)c1cncc(Oc2ccc(-c3ccc(N=[N+]=[N-])cn3)cc2)n1 [Compound 273, N-[2-({6-[4-(5-Azido-pyridin-2-yl)-phenoxy]-pyrazin-2-yl}-methyl-amino)-ethyl]-N-methyl-acetamide]",< 0.2
